Assay results published in patent US11234979B2, “Heteroaryl compounds as muscarinic M1 receptor positive allosteric modulators” (SUVEN LIFE SCIENCES LIMITED, priority 2017, dated 2022).
One block for each compound: values may come before it.

How the values were obtained:
[1] = target: T1, recombinant human Muscarinic M1 receptor (Homo sapiens, UniProt P11229); experiment: Allosteric potency EC50 for Muscarinic M1 receptor, CHO pCRE-Luc reporter assay with EC20 of acetylcholine; type: cell-based; settings: CHO cells, in presence of EC20 of acetylcholine, 4 hours
T1 construct: expressed in transfected cells
T1 sequence (P11229 1-460): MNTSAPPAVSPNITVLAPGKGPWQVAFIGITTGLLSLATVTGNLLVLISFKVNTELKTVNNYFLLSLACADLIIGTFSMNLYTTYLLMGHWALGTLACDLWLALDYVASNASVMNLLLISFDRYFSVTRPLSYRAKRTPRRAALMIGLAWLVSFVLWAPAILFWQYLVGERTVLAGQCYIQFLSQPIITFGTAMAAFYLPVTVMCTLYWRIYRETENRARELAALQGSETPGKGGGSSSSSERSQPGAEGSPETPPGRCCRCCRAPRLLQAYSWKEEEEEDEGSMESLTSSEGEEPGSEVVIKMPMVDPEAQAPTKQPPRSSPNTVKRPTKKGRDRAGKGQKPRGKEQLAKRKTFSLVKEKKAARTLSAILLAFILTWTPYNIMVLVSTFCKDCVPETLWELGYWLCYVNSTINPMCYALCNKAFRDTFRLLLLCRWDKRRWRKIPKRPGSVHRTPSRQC
Experimental: Determination of Allosteric Potency EC50 Values for Muscarinic M1 Receptor:
A stable CHO cell line expressing recombinant human Muscarinic M1 receptor and pCRE-Luc reporter system was used for cell-based assay. The assay offers a non-radioactive based approach to determine binding of a compound to GPCRs. In this specific assay, the level of intracellular cyclic AMP which is modulated by activation or inhibition of the receptor is measured. The recombinant cells harbor luciferase reporter gene under the control of cAMP response element.
The above cells were grown in 96 well clear bottom white plates in Hams F12 medium containing 10% fetal bovine serum (FBS). Prior to the addition of compounds or standard agonist, cells were serum starved overnight. Increasing concentrations of test compounds were added along with EC20 of acetylcholine in OptiMEM medium to the cells. The incubation was continued at 37° C. in CO2 incubator for 4 hours. Medium was removed and cells were washed with phosphate buffered saline. The cells were lysed and luciferase activity was measured in a Luminometer. Luminescence counts in each concentrations of test item were normalized to the acetylcholine induced maximum response and the data was analyzed using Graphpad software. EC50 values of the compounds were defined as the concentration required in stimulating the luciferase activity by 50% in presence of EC20 of acetylcholine.

[2] = Rodent pharmacokinetic study; type: in vivo, Male Wistar rats; settings: male, Wistar, rat, plasma; for bioavailability: oral 3 mg/kg vs i.v. 1 mg/kg
Experimental: Rodent Pharmacokinetic Study
Male Wistar rats (260±50 grams) were used as experimental animals. Animals were housed individually in polypropylene cage. Two days prior to study, male Wistar rats were anesthetized with isoflurane for surgical placement of jugular vein catheter. Rats were randomly divided for oral (3 mg/kg) and intravenous (i.v) (1 mg/kg) dosing (n=3/group) and fasted overnight before oral dosing (p.o.). However, rats allocated to intravenous (i.v.) dosing food and water was provided ad libitum.
At pre-determined point, blood was collected through jugular vein and replenished with an equivalent volume of normal saline. Collected blood was transferred into a labeled eppendorf tube containing 10 μL of heparin as an anticoagulant. Typically blood samples were collected at following time points: 0.08, 0.25, 0.5, 1, 2, 4, 6, 8, and 24 hours post dose. Blood was centrifuged at 4000 rpm for 10 minutes. Plasma was separated and stored frozen at −80° C. until analysis. The concentrations of the test compounds were quantified in plasma by qualified LC-MS/MS method using suitable extraction technique. The test compounds were quantified in the calibration range around 1-1000 ng/mL in plasma. Study samples were analyzed using calibration samples in the batch and quality control samples spread across the batch.
Pharmacokinetic parameters Cmax, AUCt, T1/2, clearance and bioavailability (F) were calculated by non-compartmental model using standard non-compartmental model by using Phoenix WinNonlin 6.0.2 or 6.0.3 version Software package.

[3] = Rodent brain penetration study; type: in vivo, Male Wistar rats; settings: male, Wistar, brain and plasma, po; rat, 3 mg/kg, p.o. @ 1.0 hr, brain-plasma ratio; read-out: Single dose Rat Brain Penetration (Cb/Cp)
Experimental: Rodent Brain Penetration Study
Male Wistar rats (260±40 grams) were used as experimental animals. Three animals were housed in each cage. Animals were given water and food ad libitum throughout the experiment and maintained on a 12 hours light/dark cycle.
Brain penetration was determined in discrete manner in rats. One day prior to dosing day, male Wistar rats were acclimatized and randomly grouped according to their weight. At each time point (0.5, 1 and 2 hours) n=3 animals were used.
The test compounds were suitably preformulated and administered orally at (free base equivalent) 3 mg/kg. Blood samples were removed via cardiac puncture by using isoflurane anesthesia. The animals were sacrificed to collect brain tissue. Plasma was separated and brain samples were homogenized and stored frozen at −20° C. until analysis. The concentrations of the test compounds in plasma and brain were determined using LC-MS/MS method.
The test compounds were quantified in plasma and brain homogenate by qualified LC-MS/MS method using suitable extraction technique. The test compounds were quantified in the calibration range of 1-500 ng/mL in plasma and brain homogenate. Study samples were analyzed using calibration samples in the batch and quality control samples spread across the batch.

Compound: O=C(N[C@H]1CCCC[C@@H]1O)c1cc(Cc2ccc(Br)c(F)c2)c2cccnn12 [Example 3, N-(cis-1S,2S-2-Hydroxycyclohexyl)-5-(4-bromo-3-fluorobenzyl)-pyrrolo[1,2-b]pyridazine-7-carboxamide]
- EC50 [1]: 653 nM
- AUC(0-t) ([2]; iv, i.v. 1 mg/kg): 951 ± 213 ng·h/mL
- half-life ([2]; iv, i.v. 1 mg/kg): 210 ± 66 min
- clearance ([2]; iv, i.v. 1 mg/kg): 17 ± 3 mL/min/kg
- bioavailability [2]: 49 ± 27%
- AUC(0-t) ([2]; oral 3 mg/kg): 1390 ± 780 ng·h/mL
- Cmax ([2]; oral 3 mg/kg): 132 ± 31 ng/mL
- half-life ([2]; oral 3 mg/kg): 216 ± 12 min
- Kp at 1 h [3]: 1.9 ± 0.27

Compound: O=C(N[C@H]1CCCC[C@@H]1O)c1cc(Cc2ccc(-n3cccn3)cc2)c2cccnn12 [Example 21, N-(cis-1S,2S-2-Hydroxycyclohexyl)-5-(4-pyrazol-1-ylbenzyl)-pyrrolo[1,2-b]pyridazine-7-carboxamide]
- EC50 [1]: 179 nM
- AUC(0-t) ([2]; iv, i.v. 1 mg/kg): 3700 ± 768 ng·h/mL
- half-life ([2]; iv, i.v. 1 mg/kg): 150 ± 42 min
- clearance ([2]; iv, i.v. 1 mg/kg): 4.6 ± 0.9 mL/min/kg
- bioavailability [2]: 49 ± 12%
- AUC(0-t) ([2]; oral 3 mg/kg): 5470 ± 1370 ng·h/mL
- Cmax ([2]; oral 3 mg/kg): 687 ± 169 ng/mL
- half-life ([2]; oral 3 mg/kg): 204 ± 60.6 min
- Kp at 1 h [3]: 0.24 ± 0.02

Compound: Cn1cc(-c2ccc(Cc3cc(C(=O)N[C@H]4CCCC[C@@H]4O)n4ncccc34)cc2F)cn1 [Example 33, N-(cis-1S,2S-2-Hydroxycyclohexyl)-5-[3-fluoro-4-(1-methyl-1H-pyrazol-4-yl)-benzyl]-pyrrolo[1,2-b]pyridazine-7-carboxamide]
- EC50 [1]: 259 nM
- AUC(0-t) ([2]; iv, i.v. 1 mg/kg): 908 ± 164 ng·h/mL
- half-life ([2]; iv, i.v. 1 mg/kg): 78 ± 12 min
- clearance ([2]; iv, i.v. 1 mg/kg): 19 ± 3.8 mL/min/kg
- bioavailability [2]: 103 ± 0.7%
- AUC(0-t) ([2]; oral 3 mg/kg): 2820 ± 20 ng·h/mL
- Cmax ([2]; oral 3 mg/kg): 414 ± 21 ng/mL
- half-life ([2]; oral 3 mg/kg): 162 ± 6 min
- Kp at 1 h [3]: 0.2 ± 0.001

Compound: O=C(N[C@H]1CCCC[C@@H]1O)c1cc(Cc2ccc(Br)cc2)n2cccc(F)c12 [Example 41, N-(cis-1S,2S-2-Hydroxycyclohexyl)-3-(4-bromobenzyl)-8-fluoroindolizine-1-carboxamide]
- EC50 [1]: 236 nM

Compound: O=C(N[C@H]1CCCC[C@@H]1O)c1cc(Cc2ccc(-c3cscn3)cc2)n2cccc(F)c12 [Example 45, N-(cis-1S,2S-2-Hydroxycyclohexyl)-3-(4-thiazol-4-yl-benzyl)-8-fluoroindolizine-1-carboxamide]
- EC50 [1]: 3190 nM

Compound: O=C(NC1CCOCC1O)c1cc(Cc2ccnc(Cl)c2)n2cccc(F)c12 (stereo not shown) [Example 46, N-(3-Hydroxytetrahydropyran-4-yl)-3-(2-chloropyridine-4-ylmethyl)-8-fluoroindolizine-1-carboxamide]
- EC50 [1]: 463 nM

Compound: COc1ccc(Cc2cc(C(=O)NC3CCOCC3O)c3c(F)cccn23)cc1 (stereo not shown) [Example 47, N-(3-Hydroxytetrahydropyran-4-yl)-3-(4-methoxybenzyl)-8-fluoroindolizine-1-carboxamide]
- EC50 [1]: 1110 nM

Compound: Cn1cc(-c2ccc(Cc3cc(C(=O)NC4CCOCC4)c4c(F)cccn34)cc2)cn1 [Example 50, N-(Tetrahydropyran-4-yl)-3-(4(1-methyl-1H-pyrazol-4-yl)-benzyl)-8-fluoroindolizine-1-carboxamide]
- EC50 [1]: 2530 nM

Compound: Cn1cc(-c2ccc(Cc3cc(C(=O)NC4COCCC4O)c4c(F)cccn34)cc2)cn1 (stereo not shown) [Example 51, N-(4-Hydroxytetrahydropyran-3-yl)-3-(4-(1-methyl-1H-pyrazol-4-yl)-benzyl)-8-fluoroindolizine-1-carboxamide]
- EC50 [1]: 3650 nM

Continued by falling EC50 [1], values first:

- EC50 [1]: 2060 nM
Compound: O=C(N[C@H]1CCCC[C@@H]1O)c1cc(Cc2ccnc(Cl)c2)n2cccc(F)c12 [Example 43, N-(cis-1S,2S-2-Hydroxycyclohexyl)-3-(2-chloropyridine-4-ylmethyl)-8-fluoroindolizine-1-carboxamide]

- EC50 [1]: 1650 nM
Compound: Cn1cc(-c2cc(Cc3cc(C(=O)N[C@H]4CCCC[C@@H]4O)n4ncccc34)ccn2)cn1 [Example 40, N-(cis-1S,2S-2-Hydroxycyclohexyl)-5-[2-(1-methyl-1H-pyrazol-4-yl)-pyridin-4-ylmethyl]-pyrrolo[1,2-b]pyridazine-7-carboxamide]

- EC50 [1]: 1590 nM
Compound: COc1ccc(Cc2cc(C(=O)N[C@H]3CCCC[C@@H]3O)c3c(F)cccn23)cc1 [Example 44, N-(cis-1S,2S-2-Hydroxycyclohexyl)-3-(4-methoxybenzyl)-8-fluoroindolizine-1-carboxamide]

- EC50 [1]: 1210 nM
Compound: Cn1cc(-c2ccc(Cc3cc(C(=O)NC4CCOCC4O)c4c(F)cccn34)cc2)cn1 (stereo not shown) [Example 49, N-(3-Hydroxytetrahydropyran-4-yl)-3-(4-(1-methyl-1H-pyrazol-4-yl)-benzyl)-8-fluoroindolizine-1-carboxamide]

- EC50 [1]: 1130 nM
Compound: O=C(N[C@H]1CCCC[C@@H]1O)c1cc(Cc2ccccc2)n2cccc(F)c12 [Example 42, N-(cis-1S,2S-2-Hydroxycyclohexyl)-3-benzyl-8-fluoroindolizine-1-carboxamide]

- EC50 [1]: 836 nM
- AUC(0-t) ([2]; iv, i.v. 1 mg/kg): 599 ± 58 ng·h/mL
- half-life ([2]; iv, i.v. 1 mg/kg): 144 ± 54 min
- clearance ([2]; iv, i.v. 1 mg/kg): 27 ± 3.4 mL/min/kg
- bioavailability [2]: 25 ± 4%
- AUC(0-t) ([2]; oral 3 mg/kg): 457 ± 73 ng·h/mL
- Cmax ([2]; oral 3 mg/kg): 105 ± 3 ng/mL
- half-life ([2]; oral 3 mg/kg): 234 ± 84 min
- Kp at 1 h [3]: 1.31 ± 0.11
Compound: O=C(N[C@H]1CCCC[C@@H]1O)c1cc(Cc2ccc3c(c2)CCO3)c2cccnn12 [Example 4, N-(cis-1S,2S-2-Hydroxycyclohexyl)-5-(2,3-dihydrobenzofuran-5-ylmethyl)-pyrrolo[1,2-b]pyridazine-7-carboxamide]

- EC50 [1]: 291 nM
Compound: Cn1cc(-c2ccc(Cc3cc(C(=O)NC4CCOCC4O)n4ncccc34)cc2)cn1 (stereo not shown) [Example 39, N-(3-Hydroxytetrahydropyran-4-yl)-5-[4-(1-methyl-1H-pyrazol-4-yl)-benzyl]-pyrrolo[1,2-b]pyridazine-7-carboxamide]

- EC50 [1]: 166 nM
Compound: Cn1cc(-c2ccc(Cc3cc(C(=O)N[C@H]4CCCC[C@@H]4O)c4c(F)cccn34)cc2)cn1 [Example 48, N-(cis-1S,2S-2-Hydroxycyclohexyl)-5-[4-(1-methyl-1H-pyrazol-4-yl)-benzyl]-8-fluoroindolizine-1-carboxamide]
